In patent US6100273A, “Water soluble camptothecin derivatives” (priority 1997, dated 2000):
Structures can show the parent of a compound that is named as a salt. Where two headings read alike, the source gives them in different places.

Tests used:
topoisomerase Type I = target: T1, topoisomerase Type I (Bos taurus, UniProt F1MN93); test: biochemical
T1 sequence (F1MN93 1-767): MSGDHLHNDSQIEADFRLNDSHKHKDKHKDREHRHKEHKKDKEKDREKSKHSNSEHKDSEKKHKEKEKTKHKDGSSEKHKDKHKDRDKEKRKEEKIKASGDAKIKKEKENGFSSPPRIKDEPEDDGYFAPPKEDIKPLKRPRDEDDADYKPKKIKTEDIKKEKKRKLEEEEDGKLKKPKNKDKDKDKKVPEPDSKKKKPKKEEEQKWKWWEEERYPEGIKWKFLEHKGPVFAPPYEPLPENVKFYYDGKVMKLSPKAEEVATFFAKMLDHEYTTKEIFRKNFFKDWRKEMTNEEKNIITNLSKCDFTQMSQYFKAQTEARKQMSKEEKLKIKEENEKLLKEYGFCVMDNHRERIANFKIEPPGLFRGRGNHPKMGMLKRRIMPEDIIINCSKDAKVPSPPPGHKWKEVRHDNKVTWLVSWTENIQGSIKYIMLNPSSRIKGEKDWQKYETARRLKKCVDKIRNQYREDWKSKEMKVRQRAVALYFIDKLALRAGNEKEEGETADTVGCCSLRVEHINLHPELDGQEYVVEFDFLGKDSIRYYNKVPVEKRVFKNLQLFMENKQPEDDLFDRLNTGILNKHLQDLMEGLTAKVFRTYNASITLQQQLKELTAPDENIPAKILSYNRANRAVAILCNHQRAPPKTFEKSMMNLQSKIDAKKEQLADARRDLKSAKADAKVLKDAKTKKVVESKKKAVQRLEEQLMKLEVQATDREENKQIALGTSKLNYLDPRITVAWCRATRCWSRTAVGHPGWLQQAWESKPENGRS
Protocol: Cleavable Complex in vitro Assay
The relative topoisomerase Type I inhibitory activity of the compounds of formula (I) was determined by cleavable complex in vitro assay. This assay performed according to the method described in Hsiang, Y. et al., J. Biol. Chem., 260:14873-14878 (1985), correlates well with in vivo anti-tumor activity of topoisomerase inhibitors in animal models of cancer, e.g., camptothecin and its analogs. See Hsiang et al., Cancer Research, 49:4385-4389 (1989) and Jaxel et al., Cancer Research, 49:1465-1469 (1989).

[1] = Wani et al.; cited from earlier work
[2] = cited from earlier work
certain solid tumors = settings: laboratory animals; cited from earlier work
tumor = settings: background on camptothecin; cited from earlier work
topoisomerase I = settings: background on camptothecin; cited from earlier work
leukemia (L-1210) = settings: laboratory animals; cited from earlier work
[3] = Oxidation during purification; type: physicochemical; settings: oxidizes to the sulfinyl compound of Example 27
Protocol: Mp. 195° C. (dec). MS MH+554.

Compound: CCC1(O)C(=O)OCc2c1cc1n(c2=O)Cc2c-1nc1cc3c(cc1c2C[n+]1ccccc1)OCCO3 (racemic) [Example 31, 7-Pyridinium methylene-10,11 ethylenedioxy-20(R,S)-camptothecin chloride]
- IC50 (topoisomerase Type I): > 1000 nM

Compound: CCC1(O)C(=O)OCc2c1cc1n(c2=O)Cc2cc3cc4c(cc3nc2-1)OCO4 (stereo not drawn) [10,11-methylenedioxycamptothecin]
- potency relative to unsubstituted camptothecin [1]: more potent
- water solubility ([2]; compared with camptothecin): as poor as camptothecin

Compound: CC[C@@]1(O)C(=O)OCc2c1cc1n(c2=O)Cc2cc3ccccc3nc2-1 [Camptothecin]
- effectiveness in the treatment of certain solid tumors (certain solid tumors): effective
- antitumor activity (tumor): potent antitumor agent
- topoisomerase I inhibition (topoisomerase I): topoisomerase I inhibitor
- effectiveness in the treatment of leukemia (L-1210) (leukemia (L-1210)): effective
- solubility in physiologically compatible, aqueous media [2]: essentially insoluble

Compound: CCCCOP(=O)(Cc1c2c(nc3cc4c(cc13)OCCO4)-c1cc3c(c(=O)n1C2)COC(=O)[C@]3(O)CC)OCCCC [Example 15, 7-Di-n-butylphosphonomethylene-10,11-(ethylenedioxy)-20(S)-camptothecin]
- IC50 (topoisomerase Type I): > 2000 nM

Compound: CC[C@@]1(O)C(=O)OCc2c1cc1n(c2=O)Cc2c-1nc1cc3c(cc1c2CSc1ccc(NC(C)=O)cc1)OCCO3 [Example 17, 7-(4-Acetamidophenylthio)methyl-10,11-(ethylenedioxy)-20(S)-camptothecin]
- IC50 (topoisomerase Type I; read-out: topoisomerase Type I inhibitory activity (IC50), concentration at which 50% of the DNA substrate has been captured by topoisomerase 1): > 500 nM

Compound: CC[C@@]1(O)C(=O)OCc2c1cc1n(c2=O)Cc2c-1nc1cc3c(cc1c2CSc1ccc(N)cc1)OCCO3 [Example 18, 7-(4-Aminophenylthio)methyl-10,11-(ethylenedioxy)-20(S)-camptothecin]
- IC50 (topoisomerase Type I): > 500 nM

Compound: CC[C@@]1(O)C(=O)OCc2c1cc1n(c2=O)Cc2c-1nc1cc3c(cc1c2C[S+]([O-])CCCN(C)C)OCCO3 (stereo partly drawn) [Example 27, 7-(3-Dimethylaminopropylsulfinyl)methyl-10,11-(ethylenedioxy)-20(S)-camptothecin]
- oxidation during purification [3]: readily oxidize

Compound: CC[C@@]1(O)C(=O)OCc2c1cc1n(c2=O)Cc2c-1nc1cc3c(cc1c2CSc1ccc(NC(=O)CN(C)C)cc1)OCCO3 [Example 28, 7-(4-(2-Dimethylaminoacetamido)phenylthio)methyl-10,11-(ethylenedioxy)-20(S)-camptothecin]
- IC50 (topoisomerase Type I): > 500 nM

Compound: CC[C@@]1(O)C(=O)OCc2c1cc1n(c2=O)Cc2c-1nc1cc3c(cc1c2C[n+]1cccc(CO)c1)OCCO3 [Example 36, 7-(3'-Hydroxymethylpyridinium)methylene-10,11-ethylenedioxy-20(S)-camptothecin chloride]
- IC50 (topoisomerase Type I; concentration at which 50% of the DNA substrate has been captured by topoisomerase 1, read-out: topoisomerase Type I inhibitory activity (IC50)): > 500 nM

Compound: CC[C@@](O)(C(=O)O)c1cc2n(c(=O)c1CO)Cc1cc3ccccc3nc1-2 [sodium salt]
- solubility in physiologically compatible, aqueous media [2]: soluble
